3 compounds from patent publication US20220386611A1, “NOVEL HETEROARYL-TRIAZOLE COMPOUNDS AS PESTICIDES” (Bayer Aktiengesellschaft, priority 2019, published 2022) can be followed below.

What all share (type): in vivo
Experiment [1] relates to Rhipicephalus microplus larvae (strain Parkhurst, resistant against synthetic pyrethroids). Nature of the experiment: Rhipicephalus (Boophilus) microplus in-vitro contact test, larval cattle tick. As to conditions: 5 μg/cm^2 (=500 g/ha), after 48 hours, read-out: efficacy (larvae dead or moribund). The essentials: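 Compound in acetone coated on glass tube inner walls; 900 ppm gives 5 μg/cm^2. Pyrethroid-resistant Parkhurst larvae (20-50 per tube) held at 27 °C, 85% relative humidity. Efficacy scored after 48 h from loss of negative geotaxis; 100% means all larvae dead or moribund.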

The subject of experiment [2] is larvae of the banded cucumber beetle (Diabrotica balteata). Nature of the experiment: Diabrotica balteata spray test. The note with it: 168 h, 100 g/ha (=32 μg/well), after 7 days, wheat seeds, read-out: efficacy (seedlings grown like untreated, uninfected control). The essentials: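 Germinated wheat seedlings sprayed with compound in acetone/DMF with emulsifier-containing water, then infested with 10-20 Diabrotica balteata larvae per unit. Efficacy scored after 7 days as seedling growth relative to untreated, uninfested control (100%) versus no growth (0%).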

Experiment [3] deals with green peach aphid (Myzus persicae). The experiment can be described thus: Myzus persicae oral test. As to conditions: 120 h. The procedure, abridged: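 Compound in acetone was diluted with water, and 50 μL was mixed with 150 μL IPL41 insect medium (33% + 15% sugar). A mixed aphid population fed on this through a parafilm seal. Mortality % was scored after 5 days, where 100% means all aphids were killed.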

In experiment [4] the test system is Musca domestica strain WHO-N. The experiment can be described thus: Musca domestica test (MUSCDO surface treatment & contact assay). The note with it: 24 hours after contact, read-out: efficacy (mortality); for mortality at 20 mg/m2: surface concentration 20 mg/m^2, 30 minutes exposure.
The subject of experiment [5] is adult cat fleas (Ctenocephalides felis). Nature of the experiment: Ctenocephalides felis in-vitro contact test, adult cat flea. The note with it: after 48 hours, read-out: efficacy (fleas dead or moribund); for pest or weed control at 1 µg/cm2, 100 g/ha: 1 μg/cm^2 (=100 g/ha); for pest or weed control at 5 µg/cm2, 500 g/ha: 5 μg/cm^2 (=500 g/ha). The essentials: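 Compound in acetone coated onto glass tube inner walls (900 ppm giving 5 μg/cm^2); after drying, 5-10 adult fleas added and held at room temperature. After 48 h, fleas heat-stressed at 45-50° C for up to 5 min; immotile or uncoordinated fleas scored dead/moribund, giving % efficacy.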

Experiment [6] relates to Aedes aegypti strain MONHEIM. The experiment can be described thus: Aedes aegypti test (AEDSAE surface treatment & contact assay). As to conditions: 24 hours after contact, read-out: efficacy (mortality); for mortality at 4 mg/m2: surface concentration 4 mg/m^2, 30 minutes exposure; for mortality at 20 mg/m2: surface concentration 20 mg/m^2, 30 minutes exposure. The essentials:
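Compound dissolved in acetone (2 mg/ml) with 2000 ppm rapeseed oil methyl ester, then dried onto a glazed tile. Adult A. aegypti (MONHEIM strain) exposed to the surface for 30 min. Percent mortality scored 24 h after contact.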

Experiment [7] has as its system adult unfed cat fleas (Ctenocephalides felis). Nature of the experiment: Ctenocephalides felis oral test. The note with it: 48 h. The procedure, abridged: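 About 20 adult unfed fleas fed through parafilm on cattle blood containing compound (DMSO concentrate diluted in blood); blood held at 37° C., fleas at room temperature. Mortality in % scored after 2 days (100% = all killed).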

For `CC(NC(=O)c1cc(C(F)(F)F)cc(C(F)(F)F)c1)c1nc(Cl)nn1-c1ncccn1` (stereo not shown) [Example I-002], in experiment [1], the pest or weed control at 5 µg/cm2 turned out to be 100%. Moreover, the pest or weed control at 32 µg/disc, 100 g/ha in experiment [2] was found to be 100%. In addition, the mortality (commonly the percentage killed) at 4 ppm in experiment [3] was found to be 100%. Also, the mortality at 20 mg/m2 in experiment [4] and in experiment [6] was 80 to 100% each time. Moreover, the pest or weed control at 1 µg/cm2, 100 g/ha in experiment [5] was 100%. The mortality at 4 mg/m2 in experiment [6] fell in the range of 80 to 100%. In experiment [7], this compound had a mortality at 100 ppm of 100%.
Consider `CC(NC(=O)c1cc(C(F)(F)F)cc(C(F)(F)F)c1)c1nc(Br)nn1-c1ncccn1` (stereo not shown) [Example I-010], for which the pest or weed control at 5 µg/cm2 in experiment [1] amounted to 100%. Besides, the pest or weed control at 32 µg/disc, 100 g/ha in experiment [2] is 80%. The compound also returned a mortality at 4 ppm in experiment [3] of 100%. Moreover, the mortality at 20 mg/m2 in experiment [4] and in experiment [6] was 80 to 100% each time. In addition, the pest or weed control at 5 µg/cm2, 500 g/ha in experiment [5] was determined as 80%. This compound showed a mortality at 100 ppm in experiment [7] of 100%.
Regarding `CC(NC(=O)c1cc(C(F)(F)F)cc(C(F)(F)F)c1)c1nc(I)nn1-c1ncccn1` (stereo not shown) [Example I-021], the pest or weed control at 5 µg/cm2 in experiment [1] was 100%. The pest or weed control at 32 µg/disc, 100 g/ha in experiment [2] was determined as 100%. Also, the mortality at 4 ppm in experiment [3] was 100%. Moreover, the mortality at 4 mg/m2 in experiment [4] (surface concentration 4 mg/m^2, 30 minutes exposure) lay in the range of 80 to 100%; in experiment [6], 80 to 100%. Also, the mortality at 20 mg/m2 in experiment [4] and in experiment [6] was 80 to 100% each time. In addition, in experiment [5], the pest or weed control at 1 µg/cm2, 100 g/ha turned out to be 100%. Besides, the pest or weed control at 5 µg/cm2, 500 g/ha in experiment [5] came out at 100%. In experiment [7], the mortality at 100 ppm was 100%.
